Measured values: US20080255243A1, “Stat3 as a theranostic indicator” (priority 2007, published 2008)

Tests used:
[1] = test system: phosphorylation of 4EBP1 and S6 ribosomal protein (mTOR downstream targets); assay: Western blotting of xenograft tumor and uninvolved muscle extracts for phosphorylation of mTOR downstream targets; assay type: in vivo, mouse; conditions: for phosphorylation of 4EBP1 and S6 (mTOR downstream targets): 20 mg/kg IP every 3 days for 30 days
Method: 2×10^6 cells in 0.2 mL total volume per mouse, from either Rh30 alveolar or RD embryonal cell lines, were injected orthotopically into the left hind leg gastrocnemius muscle of a SCID beige murine model. After 1 week, mice were assigned to control (n=8) or CCI-779 treatment groups (n=8). […] (FIG. 6C) CCI-779 was administered at 20 mg/kg/IP every 3 days for 30 days. Protein extracts from Rh30 and RD mouse xenograft tumors or uninvolved muscle were treated with CCI-779 or vehicle for 30 days and analyzed by Western blotting for S6 and 4EBP1 phosphorylation. […] 5. In vivo xenograft tumor model. Animal studies were performed in accordance with guidelines of the National Institutes of Health Animal Care and Use Committee. Female 4-6 week old beige-SCID mice were purchased from Charles River Laboratories (Wilmington, Mass.). Two million viable cells harvested from mid confluent cultures of either Rh30 alveolar or RD embryonal cells in 0.2 ml diluent (5% Tween-80, 5% polyethylene glycol-400 (Sigma, St. Louis, Mo.)) were injected orthotopically into the gastrocnemius muscle in the left hind leg, and after 1 week mice were randomly assigned to control (n=8) or CCI-779 treatment groups (n=8). Mice were treated IP every 3 days for 30 consecutive days with 20 mg/kg/IP of CCI-779 (Developmental Therapeutics Program, National Cancer Institute and Wyeth, Madison, N.J.) or vehicle alone. Tumor growth was measured every 3 days with calipers, and tumor volume was calculated by the formula V (mm^3)=a×b^2, where a is the longest tumor axis, and b is the shortest tumor axis. All mice were sacrificed by asphyxiation with CO2 and underwent necropsy for confirmation of tumor growth. Tumors were excised and snap frozen at -80° C. until analysis. […] Suppression of the mTOR pathway was monitored by measuring the phosphorylation of 4EBP1 and S6 ribosomal protein, which are well-established downstream targets of mTOR.

[2] = test system: RD embryonal cells xenograft; assay: RD embryonal rhabdomyosarcoma orthotopic mouse xenograft, tumor growth; assay type: in vivo; conditions: SCID-beige mice, 20 mg/kg IP every 3 days for 30 days, vs vehicle, n=8, p=0.00008 (Student's t-test)
Method: (§1) 2×10^6 cells in 0.2 mL total volume per mouse, from either Rh30 alveolar or RD embryonal cell lines, were injected orthotopically into the left hind leg gastrocnemius muscle of a SCID beige murine model. After 1 week, mice were assigned to control (n=8) or CCI-779 treatment groups (n=8). […] (FIG. 6C) CCI-779 was administered at 20 mg/kg/IP every 3 days for 30 days. Protein extracts from Rh30 and RD mouse xenograft tumors or uninvolved muscle were treated with CCI-779 or vehicle for 30 days and analyzed by Western blotting for S6 and 4EBP1 phosphorylation. […] 5. In vivo xenograft tumor model. Animal studies were performed in accordance with guidelines of the National Institutes of Health Animal Care and Use Committee. Female 4-6 week old beige-SCID mice were purchased from Charles River Laboratories (Wilmington, Mass.). […] Tumor growth was measured every 3 days with calipers, and tumor volume was calculated by the formula V (mm^3)=a×b^2, where a is the longest tumor axis, and b is the shortest tumor axis. […] Suppression of the mTOR pathway was monitored by measuring the phosphorylation of 4EBP1 and S6 ribosomal protein, which are well-established downstream targets of mTOR.

[3] = test system: Rh30 alveolar cells xenograft; assay: Rh30 alveolar rhabdomyosarcoma orthotopic mouse xenograft, tumor growth; assay type: in vivo; conditions: SCID-beige mice, 20 mg/kg IP every 3 days for 30 days, vs vehicle, n=8, p=0.0002 (Student's t-test)
Method: as §1

With `CO[C@H]1C[C@@H]2CC[C@@H](C)[C@@](O)(O2)C(=O)C(=O)N2CCCC[C@H]2C(=O)O[C@H]([C@H](C)C[C@@H]2CC[C@@H](OC(=O)C(C)(CO)CO)[C@H](OC)C2)CC(=O)[C@H](C)/C=C(\C)[C@@H](O)[C@@H](OC)C(=O)[C@H](C)C[C@H](C)/C=C/C=C/C=C/1C` [CCI-779, 40-[3-hydroxy(hydroxymethyl)methylpropanoate]-rapamycin] the “phosphorylation of 4EBP1 and S6 (mTOR downstream targets)” value ([1]; RD embryonal xenograft derived tumors) was “inhibited the phosphorylation of these downstream targets”, the “phosphorylation of 4EBP1 and S6 (mTOR downstream targets)” value ([1]; Rh30 alveolar xenograft derived tumors) was “inhibited the phosphorylation of these downstream targets” and the “phosphorylation of mTOR pathway substrates pS6 Ser235/236 and 4EBP1 Thr70” value ([1]; time dependent, non-involved muscle and tumor tissue, compared to actin (FIG. 6A)) was “inhibited phosphorylation of mTOR pathway substrates”. The “tumor growth / tumor volume measured with calipers” value (shortened to “tumor growth / tumor volume”) [2] was “profoundly reduced the growth”, the “tumor growth / tumor volume” value ([2]; 20 mg/kg) was “less in the CCI-779 treatment group as compared to the vehicle alone” and the “tumor growth / tumor volume” value [3] was “profoundly reduced the growth”. For the same compound, the “tumor growth / tumor volume” value ([3]; 20 mg/kg) was “less in the CCI-779 treatment group as compared to the vehicle alone”.
